Read-outs that look alike come from different tables or passages of the source.
Legend:
[1] = Plasma concentration of vigabatrin alone or co-administered with (1-3)IGF-1; type: in vivo, rat; conditions: vigabatrin 125 mg/kg, (1-3)IGF-1 20 mg/kg, rats
Protocol: FIG. 21 illustrates plasma concentration for vigabatrin (administered to rats at 125 mg/kg) when administered alone or in combination with (1-3)IGF-1 (20 mg/kg).

[2] = test system: IGF-1R-PI3K-AKT and IGF-1R-Ras-ERK signaling cascades; test: Western blots of IGF-1R signaling in neocortex (Example 9); type: in vivo
Protocol: Briefly, brains were quickly removed from the skull under anesthesia and the cortex dissected free from adhering tissue. It was then snap frozen on dry ice and later homogenized by sonication. Protein concentrations were determined by the BCA assay. Equal quantities of protein (10 μg) from each sample were resolved by polyacrylamide gel electrophoresis. The primary antibodies used were against: pAKT Thr308, pAkt Ser473, pS6 Ser240/244, AKT, S6, IGF-1R. Secondary antibodies were conjugated to horseradish peroxidase and visualization of immunoreactive bands was produced by enhanced chemiluminescence and then exposed to Kodak Biomax film. After digitization, band intensity was quantified with Image J Image software. Blots were also probed with antibodies to GAPDH, which served as a loading control. Band intensity was normalized to control values on the same blot.
The experiments were performed using N=5 for both control and epileptic groups. Animals were 6 weeks old and sacrificed 2 hours after treatment.
Animals (6 weeks old) were treated with 50 mg/kg of PPP or DMSO vehicle. Four hours later, they received 20 mg/kg of (1-3)IGF-1 or vehicle. Two hour later the neocortex was collected.
Vigabatrin (125 mg/kg) was injected 2 and 24 hours before collecting neocortex. Western blots from 2 animals and controls are shown in upper panel (FIG. 25A) for bar graphs n=6. For the combination study, the animals were administered vigabatrin (125/mg/kg), and (1-3)IGF-1 (20 mg/kg) was injected 30 min before collecting cortex in the combination group and the (1-3)IGF-1-only group. Controls received vehicle only. The results are illustrated in FIG. 25B.

[3] = test system: epileptic spasms (TTX rat model of infantile spasms); type: in vivo
[4] = test system: hypsarrhythmia (abnormal EEG pattern); test: EEG analysis for hypsarrhythmia in rats with spasms; type: in vivo, rat; conditions: VGB 325 mg/kg/day, 2 weeks; 5 rats with pattern at baseline
[5] = human, in vivo; cited from earlier work
[6] = each drug alone: VGB 250 mg/kg/day or (1-3)IGF-1 10 mg/kg/day, 2 weeks

Molecule: NCC(=O)N1CCC[C@H]1C(=O)N[C@@H](CCC(=O)O)C(=O)O [(1-3)IGF-1, Gly-Pro-Glu]
- effect of co-administration on vigabatrin pharmacokinetics (plasma concentration) [1]: no discernible effect

Molecule: COc1cc([C@@H]2c3cc4c(cc3[C@H](O)[C@H]3COC(=O)[C@@H]23)OCO4)cc(OC)c1OC [picropodophyllin, (5R,5aR,8aS,9R)-5-hydroxy-9-(3,4,5-trimethoxyphenyl)-5a,6,8a,9-tetrahydro-5H-[2]benzofuro[5,6-f][1,3]benzodioxol-8-one]
- effect on (1-3)IGF-1 induced activation of AKT ([2]; 50 mg/kg PPP, 4 hours before 20 mg/kg (1-3)IGF-1, neocortex collected 2 hours later): blocks

Molecule: C=CC(N)CCC(=O)O (stereo not shown) [vigabatrin, γ-vinyl-GABA]
- activation of IGF-1R signaling ([2]; vigabatrin 125 mg/kg, 2 and 24 hours before collecting neocortex): does not activate
- effect on (1-3)IGF-1-induced IGF-1R signaling ([2]; vigabatrin 125 mg/kg, (1-3)IGF-1 20 mg/kg 30 min before collecting cortex): does not alter
- spasm counts (in words) ([3]; VGB 325 mg/kg/day i.p., 2 weeks, vs vehicle controls): dramatic reduction in spasm counts
- effect on spasm counts (in words) [3, 6]: modest effects on spasm counts
- presence of spasms after treatment, all rats [3, 6]: continued to have spasms
- effect on % animals with spasms ([3]; individual administration: vigabatrin 125 mg/kg/day or (1-3)IGF-1 20 mg/kg/day, 2 weeks): no measurable effect
- effect on % animals with spasms ([3]; individual administration: vigabatrin 250 mg/kg/day or (1-3)IGF-1 10 mg/kg/day, 2 weeks): no measurable effect
- hypsarrhythmia after treatment [4]: eliminated in all of them
- adults with visual field loss [5]: 52%
- children with visual field loss [5]: 34%
- vigabatrin-treated subjects with visual field loss [5]: 44%

Molecule: rhIGF-1: rhIGF-1 from Peprotech; the full length growth factor
- rats that became free of spasms ([3]; rhIGF-1 1 mg/kg/day, 3 weeks): One of the 5
- rats that continued to have spasms after treatment ([3]; rhIGF-1 1 mg/kg/day, 3 weeks): 4 of 5
- reduction of spasm counts, on average ([3]; rhIGF-1 1 mg/kg/day, 3 weeks): 40%

From patent publication US11351229B2, “Combination therapies for treating infantile spasms and other treatment resistant epilepsies” (Baylor College of Medicine, priority 2017, dated 2022)
